Patent publication US20210269434A1, “TRICYCLIC COMPOUNDS AS INHIBITORS OF KRAS” (Incyte Corporation, priority 2020, published 2021)

The compounds below were run against KRAS G12D (Homo sapiens, UniProt P01116, G12D) (assay: GDP-GTP exchange assay (KRAS_G12D exchange)). Settings: bodipy loaded KRAS G12D 2.5 nM; 4 hours incubation after GppNHp-SOS1; read-out: G12D_exchange.
Sequence of KRAS G12D (P01116 1-188 isoform P01116-2 G12D): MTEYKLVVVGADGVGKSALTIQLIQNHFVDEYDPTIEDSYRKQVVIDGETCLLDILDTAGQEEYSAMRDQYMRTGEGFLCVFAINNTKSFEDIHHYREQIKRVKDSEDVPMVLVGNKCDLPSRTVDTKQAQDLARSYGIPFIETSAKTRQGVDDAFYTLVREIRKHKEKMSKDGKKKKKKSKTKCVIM
Format: biochemical
Protocol: Example A. GDP-GTP Exchange Assay
The inhibitor potency of the exemplified compounds was determined in a fluorescence based guanine nucleotide exchange assay, which measures the exchange of bodipy-GDP (fluorescently labeled GDP) for GppNHp (Non-hydrolyzable GTP analog) to generate the active state of KRAS in the presence of SOS1 (guanine nucleotide exchange factor). Inhibitors were serially diluted in DMSO and a volume of 0.1 μL was transferred to the wells of a black low volume 384-well plate. 5 μL/well volume of bodipy-loaded KRAS G12C diluted to 5 nM in assay buffer (25 mM Hepes pH 7.5, 50 mM NaCl, 10 mM MgCl2 and 0.01% Brij-35) was added to the plate and pre-incubated with inhibitor for 2 hours at ambient temperature. Appropriate controls (enzyme with no inhibitor or with a G12C inhibitor (AMG-510)) were included on the plate. The exchange was initiated by the addition of a 5 μL/well volume containing 1 mM GppNHp and 300 nM SOS1 in assay buffer. The 10 μL/well reaction concentration of the bodipy-loaded KRAS G12C, GppNHp, and SOS1 were 2.5 nM, 500 uM, and 150 nM, respectively. The reaction plates were incubated at ambient temperature for 2 hours, a time estimated for complete GDP-GTP exchange in the absence of inhibitor. For the KRAS G12D and G12V mutants, similar guanine nucleotide exchange assays were used with 2.5 nM as final concentration for the bodipy loaded KRAS proteins and with 4 hours and 3 hours incubation after adding GppNHp-SOS1 mixture for G12D and G12V respectively. A cyclic peptide described to selectively bind G12D mutant (Sakamoto et al., BBRC 484.3 (2017), 605-611) or internal compounds with confirmed binding were used as positive controls in the assay plates. Fluorescence intensities were measured on a PheraStar plate reader instrument (BMG Labtech) with excitation at 485 nm and emission at 520 nm.
Either GraphPad prism or XLfit was used to analyze the data. The IC50 values were derived by fitting the data to a four parameter logistic equation producing a sigmoidal dose-response curve with a variable Hill coefficient. Prism equation: Y=Bottom+(Top−Bottom)/(1+10^((Log lC50−X)*Hill slope)); XLfit equation: Y=(A+((B−A)/(1+((X/C)^D)))) where X is the logarithm of inhibitor concentration and Y is the response.
With Cc1ccc2cc(O)cc(-c3c(Cl)cc4c(nc(N5CC(N(C)C)C5)c5ncn([C@H]6[C@H]7CN[C@@H]6C7)c54)c3F)c2c1 [Example 24, 4-(1-((endo)-2-azabicyclo[2.1.1]hexan-5-yl)-8-chloro-4-(3-(dimethylamino)-azetidin-1-yl)-6-fluoro-1H-imidazo[4,5-c]quinolin-7-yl)-6-methylnaphthalen-2-ol] the IC50 was 1000 to 5000 nM.
With CN(C)C1CN(c2nc3c(F)c(-c4cc(O)cc5ccccc45)c(Cl)cc3c3c2nc(CCN)n3[C@H]2[C@H]3CN[C@@H]2C3)C1 [Example 76, 4-(2-(2-aminoethyl)-1-((endo)-2-azabicyclo[2.1.1]hexan-5-yl)-8-chloro-4-(3-(dimethylamino)azetidin-1-yl)-6-fluoro-1H-imidazo[4,5-c]quinolin-7-yl)naphthalen-2-ol] the IC50 was 100 to 1000 nM.
CN(C)C1CN(c2nc3c(F)c(-c4cc(O)cc5ccccc45)c(Cl)cc3c3c2nc(-c2cn(C)cn2)n3[C@H]2[C@H]3CN[C@@H]2C3)C1 [Example 78, 4-(1-((endo)-2-azabicyclo[2.1.1]hexan-5-yl)-8-chloro-4-(3-(dimethylamino)-azetidin-1-yl)-6-fluoro-2-(1-methyl-1H-imidazol-4-yl)-1H-imidazo[4,5-c]quinolin-7-yl)naphthalen-2-ol] gave an IC50 of 100 to 1000 nM.
In the case of CN(C)C(=O)CCc1nc2c(N3CC(N(C)C)C3)nc3c(Oc4ccccc4)c(-c4cc(O)cc5ccccc45)c(CCC#N)cc3c2n1C1C2CNC1C2 (stereo not drawn) [Example 293, 3-(1-((endo)-2-azabicyclo[2.1.1]hexan-5-yl)-8-(2-cyanoethyl)-4-(3-(dimethylamino)azetidin-1-yl)-7-(3-hydroxynaphthalen-1-yl)-6-phenoxy-1H-imidazo[4,5-c]quinolin-2-yl)-N,N-dimethylpropanamide], the IC50 is reported as 100 to 1000 nM.
In the case of CNC(=O)c1cc(-c2nc3c(F)c(-c4cc(O)cc5ccccc45)c(CCC#N)cc3c3c2nc(CCC(=O)N(C)C)n3C2C3CNC2C3)ccc1F (stereo not drawn) [Example 297, 5-(1-((endo)-2-azabicyclo[2.1.1]hexan-5-yl)-8-(2-cyanoethyl)-2-(3-(dimethylamino)-3-oxopropyl)-6-fluoro-7-(3-hydroxynaphthalen-1-yl)-1H-imidazo[4,5-c]quinolin-4-yl)-2-fluoro-N-methylbenzamide], the IC50 is reported as no more than 100 nM.
CN(C)C(=O)CCc1nc2c(-c3ccc(=O)n(C)c3)nc3c(F)c(-c4cc(O)cc5ccccc45)c(CCC#N)cc3c2n1C1C2CNC1C2 (stereo not drawn) [Example 298, 3-(1-((endo)-2-azabicyclo[2.1.1]hexan-5-yl)-8-(2-cyanoethyl)-6-fluoro-7-(3-hydroxynaphthalen-1-yl)-4-(1-methyl-6-oxo-1,6-dihydropyridin-3-yl)-1H-imidazo[4,5-c]quinolin-2-yl)-N,N-dimethylpropanamide] gave an IC50 of no more than 100 nM.
With CN(C)C(=O)CCc1nc2c(N3CC(N(C)C)C3)nc3c(F)c(-c4cc(O)cc5ccccc45)c(Cc4ccccc4C#N)cc3c2n1C1C2CNC1C2 (stereo not drawn) [Example 299, 3-(1-((endo)-2-azabicyclo[2.1.1]hexan-5-yl)-8-(2-cyanobenzyl)-4-(3-(dimethylamino)azetidin-1-yl)-6-fluoro-7-(3-hydroxynaphthalen-1-yl)-1H-imidazo[4,5-c]quinolin-2-yl)-N,N-dimethylpropanamide] the IC50 was no more than 100 nM.
CN(Cc1ccccn1)C(=O)CCc1nc2c(N3CC(N(C)C)C3)nc3c(F)c(-c4cc(O)cc5ccccc45)c(CCC#N)cc3c2n1C1C2CNC1C2 (stereo not drawn) [Example 301a, 3-(1-((endo)-2-azabicyclo[2.1.1]hexan-5-yl)-8-(2-cyanoethyl)-4-(3-(dimethylamino)azetidin-1-yl)-6-fluoro-7-(3-hydroxynaphthalen-1-yl)-1H-imidazo[4,5-c]quinolin-2-yl)-N-methyl-N-(pyridin-2-ylmethyl)propanamide] was tested, and the IC50 was no more than 100 nM.
